Reference: patent US6893846B2, “Primers for use in detecting beta-lactamases” (priority 1998, dated 2005)
Where two headings read alike, the source gives them in different places.

Assays:
[1] = system: E. coli HB101 transformant (17 kb plasmid); conditions: disk diffusion, Tr (17 kb) = transformant E. coli HB101
K. pneumoniae 225 [2] = assay: NCCLS disk diffusion assay; format: cell-based, Klebsiella pneumoniae; conditions: disk diffusion, Kleb 225
E. aerogenes = assay: Disk diffusion susceptibility test; format: cell-based, Enterobacter aerogenes; conditions: all the E. aerogenes strains
Procedure: (§1) Antibiotic susceptibilities were determined by standard disk-diffusion (NCCLS Standard M2-A6) and agar-dilution (NCCLS Standard M7-A4) procedures. Disks were obtained from Becton Dickinson Microbiology Systems (Cockeysville, Md.). Disk-diffusion susceptibilities to the following antibiotics were determined, ampicillin; amoxicillin clavulanic acid; aztreonam; cefazolin; cefoxitin; cefuroxime; cefotaxime; ceftriaxone; ceftazidime; cefepime; imipenem; gentamicin; trimethoprim/sulfamethoxazole and ciprofloxacin. […] The following quality control strains were run simultaneously with the test organisms Escherichia coli ATCC 25922, Pseudomonas aeruginosa ATCC 27853, and E. coli ATCC 35218. Throughout this study, results were interpreted using NCCLS criteria for disk diffusion (NCCLS M2-A6) and broth dilution (NCCLS M7-A4).

[3] = system: E. coli C600 transconjugant; conditions: disk diffusion, Tc = transconjugate E. coli C600
K. pneumoniae 225 [4] = assay: MicroScan Walkaway microdilution susceptibility test; format: cell-based, Klebsiella pneumoniae; conditions: K. pneumoniae 225
[5] = system: E. coli C600N transconjugants; assay: Susceptibility of transconjugants; format: cell-based, Escherichia coli; conditions: E. coli C600N transconjugants of E. aerogenes 187, 200, 220, 184
Procedure: as §1
[…]. The filter paper mating technique with overnight incubation at 37° C. were performed as described previously (Philippon et al., Antimicrob. Agents Chemother., 33:1131-1136 (1989)). Transconjugants were selected on LB (Luria Bertani) agar [Difco (Detroit, Mich.)] plates containing 12 μg per ml nalidixic acid and 20 μg per ml ampicillin.

[6] = molecular target: single beta-lactamase in K. pneumoniae cell extracts (Klebsiella pneumoniae, UniProt P0AD64, E235K/G234S); assay: Spectrophotometric hydrolysis assay on crude beta-lactamase extracts; conditions: K. pneumoniae Pit 82 extract, beta-lactamase pI 8.2; 100 μM substrate
[7] = molecular target: single beta-lactamase in K. pneumoniae cell extracts (Escherichia coli, UniProt P62593, E102K/R162S); assay: as above; conditions: K. pneumoniae Pit 16 extract, beta-lactamase pI 5.6; 100 μM substrate
[8] = molecular target: single beta-lactamase in K. pneumoniae cell extracts (Klebsiella pneumoniae, UniProt P0AD64, G234S); assay: as above; conditions: K. pneumoniae Pit 100 extract, beta-lactamase pI 7.6; 100 μM substrate
[9] = molecular target: single beta-lactamase in E. coli cell extracts (Escherichia coli, UniProt P62593, E102K/R162S); assay: as above; conditions: E. coli Pit 64 extract, beta-lactamase pI 5.6; 100 μM substrate
[10] = molecular target: single beta-lactamase in P. mirabilis cell extracts (Escherichia coli, UniProt P62593, E102K/R162S); assay: as above; conditions: P. mirabilis Pit 85 extract, beta-lactamase pI 5.6; 100 μM substrate
K. pneumoniae 225 [11] = assay: Three-dimensional test (enzymatic inactivation of antibiotics); conditions: beta-lactamase-mediated hydrolysis by K. pneumoniae 225, lawn E. coli ATCC 25922
K. pneumoniae 225 [12] = assay: NCCLS microdilution susceptibility test; format: cell-based, Klebsiella pneumoniae; conditions: Klebsiella pneumoniae, 225
K. pneumoniae = assay: Agar dilution MIC, South African isolates; format: cell-based, Klebsiella pneumoniae; conditions: tzp with tazobactam 4 μg/ml
Source text: (§2) The strains were provided in response to a request for all strains of Enterobacteriaceae, lacking inducible beta-lactamases, that were intermediate or resistant to cefotaxime or ceftazidime. […]

E. coli = assay: Agar dilution MIC, South African isolates; format: cell-based, Escherichia coli; conditions: tzp with tazobactam 4 μg/ml
Source text: as §2

P. mirabilis = assay: Agar dilution MIC, South African isolates; format: cell-based, Proteus mirabilis; conditions: 4 strains, tzp with tazobactam 4 μg/ml
Source text: During a period of three months in 1993, […] strains of Klebsiella pneumoniae (13 blood, 5 burn, 7 wound, 11 tracheal isolates), 4 strains of Proteus mirabilis (all wound isolates) and 4 strains of Escherichia coli (1 blood, 1 burn, 2 wound isolates) were collected from patients at the following medical centers in South Africa: Tygerberg Hospital near Cape Town, King Edward VIII Hospital in Durban, Chris Hani Baragwanath Hospital in Soweto and Pretoria Academic Hospital in Pretoria. The strains were provided in response to a request for all strains of Enterobacteriaceae, lacking inducible beta-lactamases, that were intermediate or resistant to cefotaxime or ceftazidime. […] Therefore accurate prevalence data were not obtained.
Antibiotic susceptibility was determined by standard disk diffusion (NCCLS Standard M2-T4, 1994) and agar dilution (NCCLS Standard M7-T2, 1994) procedures. Standard powders of antimicrobial agents were kindly provided by the following companies: piperacillin and tazobactam (Lederle Laboratories, Wayne, N.J.); cefoxitin and imipenem, (Merck, Rathway, N.J.); cefotaxime, (Hoechst-Roussel Pharmaceuticals Inc., Somerville, N.J.); ceftazidime, (Glaxo Group Research Ltd., Greenford, England); aztreonam and cefepime, (Bristol-Myers Squibb, Princeton, N.J.). Disks for agar diffusion were obtained from Becton Dickinson Microbiology Systems (Cockeysville, Md.). For quality control purposes, the following quality control strains were run simultaneously with the test organisms E. coli ATCC 25922, Pseudomonas aeruginosa ATCC 27853, E. coli ATCC 35218, and Staphylococcus aureus ATCC 29213. Throughout this study, results were interpreted using NCCLS criteria for disk diffusion (NCCLS Standard M2-T4, 1994) and broth dilution (NCCLS Standard M7-T2, 1994).

[13] = system: beta-lactamases in sonic extracts of E. aerogenes; assay: Isoelectric focusing overlay: cefotaxime hydrolysis, inhibitors, induction
[14] = molecular target: beta-lactamases in sonic extracts of K. pneumoniae (Klebsiella pneumoniae, UniProt P0AD64); conditions: Kpn1, beta-lactamase pI 7.6 (SHV-1)
[15] = molecular target: beta-lactamases in sonic extracts of K. pneumoniae (Klebsiella pneumoniae, UniProt P0AD64, E235K/G234S); conditions: Kpn2, beta-lactamase pI 8.2 (SHV-5)
[16] = molecular target: beta-lactamases in sonic extracts of K. pneumoniae (Escherichia coli, UniProt P62593)
[17] = system: beta-lactamases in sonic extracts of K. pneumoniae
[18] = molecular target: beta-lactamases in sonic extracts of E. coli (Escherichia coli, UniProt P62593); assay: Isoelectric focusing overlay: cefotaxime hydrolysis and inhibitors
[19] = system: beta-lactamases in sonic extracts of E. coli; assay: as above
[20] = SHV-3 strain (1), Bush group 1 enzyme pI 8.3
[21] = SHV-3 strain (1), Bush group 2be enzyme pI 6.9
[22] = SHV-4 strains (29), Bush group 1 enzyme pI 8.3
[23] = SHV-4 strains (29), Bush group 2be enzyme pI 7.8
[24] = SHV-5 strain (1), Bush group 1 enzyme pI 8.3
[25] = SHV-5 strain (1), Bush group 2Be enzyme pI 8.0
[26] = Kpn2, beta-lactamase pI 5.4 (TEM-1)
[27] = Kpn3, beta-lactamase pI 5.4 (TEM-1)
[28] = Kpn1, beta-lactamase pI 5.6 (TEM-10 or 26)
[29] = Kpn2, beta-lactamase pI 7.6 (SHV-2 or 8)
[30] = Kpn3, beta-lactamase pI 8.0 (AmpC)
[31] = Ec1, beta-lactamase pI 5.4 (TEM-1)
[32] = Ec2, beta-lactamase pI 5.4 (TEM-1)
[33] = Ec1, beta-lactamase pI 5.6 (TEM-10 or 26)
[34] = Ec2, beta-lactamase pI 7.6 (SHV-2 or 8)

Molecule	Zone Size [1] [mm]	Zone Size (K. pneumoniae 225 [2]) [mm]	Zone Size [3] [mm]	susceptibility after transfer of plasmids encoding SHV beta-lactamase genes [5]	Hydrolysis [6]	Hydrolysis [7]	Hydrolysis [8]	Hydrolysis [9]	Hydrolysis [10]	Inhibited by [13, 20]	Inhibited by [13, 21]	Inhibited by [13, 22]	Inhibited by [13, 23]	Inhibited by [13, 24]	Inhibited by [13, 25]	Inhibited by [14]	Inhibited by [15]	Inhibited by [16, 26]	Inhibited by [16, 27]	Inhibited by [17, 28]	further results
trimethoprim/sulfamethoxazole	31	6	8	resistance	–	–	–	–	–	–	–	–	–	–	–	–	–	–	–	–	Disk diffusion susceptibility (E. aerogenes): resistant; MicroScan susceptibility result (K. pneumoniae 225 [4]): Resistant; MicroScan MIC (K. pneumoniae 225 [4]; MicroScan test, unit not given): > 2/38
O=C(Cc1cccs1)N[C@@H]1C(=O)N2C(C(=O)O)=C(/C=C/c3ccc([N+](=O)[O-])cc3[N+](=O)[O-])CS[C@H]12 [Nitrocefin]	–	–	–	–	136 nmol of substrate hydrolyzed/m	114 nmol of substrate hydrolyzed/m	159 nmol of substrate hydrolyzed/m	275 nmol of substrate hydrolyzed/m	138 nmol of substrate hydrolyzed/m	–	–	–	–	–	–	–	–	–	–	–	–
C[C@H]1[C@H](NC(=O)/C(=N\OC(C)(C)C(=O)O)c2csc(N)n2)C(=O)N1S(=O)(=O)O [aztreonam]	33	8	7	decreased susceptibility	0.9 nmol of substrate hydrolyzed/m	0.6 nmol of substrate hydrolyzed/m	0.9 nmol of substrate hydrolyzed/m	0.4 nmol of substrate hydrolyzed/m	0.5 nmol of substrate hydrolyzed/m	–	–	–	–	–	–	–	–	–	–	–	three dimensional test (K. pneumoniae 225 [11]): positive; MIC (K. pneumoniae 225 [12]): > 64 µg/mL; MIC range (K. pneumoniae; resistance phenotype Kpn1, 8 strains): 16 to 64 µg/mL; MIC range (K. pneumoniae; resistance phenotype Kpn2, 28 strains): 1 to 128 µg/mL; MIC range (K. pneumoniae; resistance phenotype Kpn3 (K. pneumoniae Pit 68), 1 strain, listed as atm): 2 µg/mL; MIC range (E. coli; resistance phenotype Ec1, 3 strains): 16 µg/mL; MIC range (E. coli; resistance phenotype Ec2, 1 strain): 2 µg/mL; MIC range (P. mirabilis): 0.5 to 2 µg/mL
Cc1onc(-c2ccccc2Cl)c1C(=O)N[C@@H]1C(=O)N2[C@@H]1SC(C)(C)[C@@H]2C(=O)O [cloxacillin]	–	–	–	–	–	–	–	–	–	yes	no	yes	no	yes	no	No	Yes	No	No	No	Inhibited by [17, 29]: No; Inhibited by [17, 30]: Yes; Inhibited by [18, 31]: No; Inhibited by [18, 32]: No; Inhibited by [19, 33]: No; Inhibited by [19, 34]: No
O=C(O)[C@H]1/C(=C/CO)O[C@@H]2CC(=O)N21 [clavulanate]	–	–	–	–	–	–	–	–	–	no	yes	no	yes	no	yes	Yes	No	Yes	Yes	Yes	Inhibited by [17, 29]: Yes; Inhibited by [17, 30]: No; Inhibited by [18, 31]: Yes; Inhibited by [18, 32]: Yes; Inhibited by [19, 33]: Yes; Inhibited by [19, 34]: Yes
